According to patent US11241013B2, “Benzimidazole compounds as agricultural chemicals” (REDAG CROP PROTECTION LTD, priority 2017, dated 2022):

Legend:
[1] = system: Phytophthora cactorum; test: 96 well plate test; assay type: cell-based; details: 96 well plate assay, agar amended to 20, 2, 0.2 and 0.02 ppm, assessed after 2 to 3 days, read-out: EC50 Phytophthora spp. (Phytophthora cactorum)
Protocol: Compounds were screened in 96 well plates with 10 compounds per plate. Each compound was screened using agar amended to 20, 2, 0.2 and 0.02 ppm, with proline at 50 and 10 ppm and 0.2% DMSO used as controls. Each test concentration and standard was replicated twice on a plate. Compounds were screened against Phytophthora cactorum. The agar used in the test is a 1% potato dextrose agar. 1000 spores/mL agar were added to the appropriate agar. A ×10 stock solution in 2% DMSO was produced for each dose i.e. 200, 20, 2 and 0.2 ppm, and 10 μl of this added to the appropriate wells on the plate. An equivalent amount of 2% DMSO and proline stock at 500 and 100 ppm were added for the controls. To each well 90 μl of the appropriate agar spore suspension was added to give the required final well concentrations. Plates were incubated at room temperature (18° C.) and assessed after 2 to 3 days. The amount of pathogen growth in each well was compared to the DMSO controls and an EC50 concentration was calculated. The results are provided in Table 1 in which H represents no control detected at 20 ppm, G represents no control detected at 2 ppm (where the highest test concentration in the assay was 2 ppm), F represents an EC50 of ≥20 ppm, E represents an EC50 of less than 20 ppm.

[2] = system: Pythium ultimum; test: Amended agar assay; assay type: cell-based; parameters: key to % control Pythium ultimum 2 ppm / % control Pythium ultimum 20 ppm: D: no control detected at this concentration; C: up to 50% control; B: from 50 to 99% control; A: a control of greater than 99%, i.e. no detectable colony growth; details: amended PDA agar, % reduction in colony growth vs control plate, 18° C.; for inhibition of growth at 2 ppm / inhibition of growth at 20 ppm: Globisporangium ultimum
Protocol: Testing was carried out on potato dextrose agar (PDA) amended with each compound at a test concentration of typically 20 ppm or 2 ppm. Amended agar was poured into three replicate 9 cm petri dishes. Each replicate dish was inoculated in the centre with a 5 mm agar plug taken from the leading edge of a culture aged between 2 and 7 days old; the age of the culture was dependant on the growth rate of the pathogen being tested. The test pathogens were Pythium ultimum and Phytophthora cinnamomi. Plates were incubated at 18° C. and the diameter of each colony measured before growth on the fastest growing plate reached the plate edge. This varied between 2 and 7 days depending on the growth rate of test pathogens. The % reduction in colony growth compared to the control plate was calculated for each pathogen. The results are provided in Table 1, in which D represents no control detected at this concentration; C represents up to 50% control; B from 50 to 99% control; and A represents a control of greater than 99%, i.e. no detectable colony growth.
Alternatively, or in addition, the same assay was conducted at descending test concentrations with 5-fold dilutions typically down to 0.032 ppm though sometimes as low as 0.00026 ppm, and an EC50 (the concentration at which 50% control would be achieved) was determined. The results are provided in Table 1 in which G represents no control detected at 20 ppm, F represents an EC50 of ≥20 ppm and E represents an EC50 of less than 20 ppm.

Row | Structure (SMILES) | EC50 [1] | inhibition of growth at 2 ppm ([2]; 2 ppm) | % control Pythium ultimum 2 ppm ([2]; 2 ppm) | inhibition of growth at 20 ppm [2]
1 | Cn1nnnc1-n1c(OCc2cccc(NCc3cccc(C(F)(F)F)c3)n2)nc2ccccc21 [Example 97] | < 20 µg/mL | > 99% |  | 
2 | Cn1nnnc1-n1c(OCc2nc3ccccc3n2C)nc2ccccc21 [Example 64] | < 20 µg/mL | > 99% |  | 
3 | Clc1cncnc1-n1c(OCc2ccccn2)nc2ccccc21 [Example 8] | ≥ 20 µg/mL | 50 to 99% |  | 
4 | CCCCNc1cccc(COc2nc3ccccc3n2-c2nnnn2C)n1 [Example 43] | < 20 µg/mL | > 99% |  | 
5 | Cn1nnnc1-n1c(OCc2cccc(NCc3ccco3)n2)nc2ccccc21 [Example 44] | < 20 µg/mL | > 99% |  | 
6 | Cn1nnnc1-n1c(OCc2cc(N)ccn2)nc2ccccc21 [Example 108, 2-(((1-(1-Methyl-1H-tetrazol-5-yl)-1H-benzo[d]imidazol-2-yl)oxy)methyl)pyridin-4-amine] | ≥ 20 µg/mL |  | D | 
7 | Cn1nnnc1-n1c(OCc2cccc(N)n2)nc2c(Br)cccc21 [Example 106] | < 20 µg/mL | 50 to 99% |  | 
8 | Cc1ccnc(COc2nc3ccccc3n2-c2nnnn2C)c1 [Example 11] | < 20 µg/mL | > 99% |  | > 99%
9 | Cn1nnnc1-n1c(OCc2cccc(NCc3ccccc3)n2)nc2ccccc21 [Example 35, N-Benzyl-6-(((1-(1-methyl-1H-tetrazol-5-yl)-1H-benzo[d]imidazol-2-yl)oxy)methyl)pyridin-2-amine] | < 20 µg/mL | > 99% |  | 
10 | Cn1nnnc1-n1c(OCc2ccccn2)nc2c(Cl)cccc21 [Example 30] | < 20 µg/mL | > 99% |  | 
11 | CSc1ccnc(COc2nc3ccccc3n2-c2nnnn2C)c1 [Example 55] | < 20 µg/mL | > 99% |  | 
12 | Cn1nnnc1-n1c(OCc2cccc(NCC3CC3)n2)nc2ccccc21 [Example 47] | < 20 µg/mL | > 99% |  | 
13 | CCCCNc1cccc(COc2nc3c(Cl)cccc3n2-c2nnnn2C)n1 [Example 98] | < 20 µg/mL | > 99% |  | 
14 | Cn1nnnc1-n1c(OCc2cccc(NCC3CC3)n2)nc2c(F)cccc21 [Example 91] | < 20 µg/mL | > 99% |  | 
15 | COCCCOc1ccnc(COc2nc3ccccc3n2-c2ncncc2Cl)c1C [Example 10] | ≥ 20 µg/mL | 50 to 99% |  | 
16 | Cn1nnnc1-n1c(OCc2ccc3ccccc3n2)nc2ccccc21 [Example 65] | ≥ 20 µg/mL | 50 to 99% |  | 
17 | Cn1nnnc1-n1c(OCc2cccc(NCC3CCCC3)n2)nc2ccccc21 [Example 80] | < 20 µg/mL | > 99% |  | 
18 | Cn1nnnc1-n1c(OCc2cccc(Br)n2)nc2ccccc21 [Example 17, 2-((6-bromopyridin-2-yl)methoxy)-1-(1-methyl-1H-tetrazol-5-yl)-1H-benzo[d]imidazole] | ≥ 20 µg/mL | < 50% |  | 
19 | CCC(C)Nc1cccc(COc2nc3ccccc3n2-c2nnnn2C)n1 (centres unmarked) [Example 82] | < 20 µg/mL | > 99% |  | 
20 | Cn1nnnc1-n1c(OCc2cccc(NCc3ccccc3)n2)nc2c(Cl)cccc21 [Example 89] | < 20 µg/mL | > 99% |  | 
21 | Cc1c(OC(F)(F)C(F)(F)F)ccnc1COc1nc2c(Cl)cccc2n1-c1nnnn1C [Example 60] | < 20 µg/mL | > 99% |  | 
22 | Cn1nnnc1-n1c(OCc2cccc(NCc3cccc(C#N)c3)n2)nc2ccccc21 [Example 93] | < 20 µg/mL | > 99% |  | 
23 | Cn1nnnc1-n1c(OCc2cccc(NCC3CC3)n2)nc2c(Cl)cccc21 [Example 87] | < 20 µg/mL | > 99% |  | 
24 | COc1ccnc(COc2nc3ccccc3n2-c2ncncc2Cl)c1 [Example 22] | ≥ 20 µg/mL | 50 to 99% |  | 
25 | CC(C)Nc1cccc(COc2nc3c(Cl)cccc3n2-c2nnnn2C)n1 [Example 103] | < 20 µg/mL | > 99% |  | 

The next lines start with results.

Row | EC50 [1] | Structure (SMILES) | inhibition of growth at 2 ppm ([2]; 2 ppm) | % control Pythium ultimum 2 ppm ([2]; 2 ppm) | inhibition of growth at 20 ppm [2]
26 | < 20 µg/mL | Cn1nnnc1-n1c(OCc2cccc(NCCOc3ccccc3)n2)nc2c(Cl)cccc21 [Example 74] | > 99% |  | 
27 | < 20 µg/mL | Cn1nnnc1-n1c(OCc2nc3ccccc3n2C)nc2c(Br)cccc21 [Example 105] | > 99% |  | 
28 | < 20 µg/mL | Cn1nnnc1-n1c(OCc2cccc(NCCC(F)(F)F)n2)nc2ccccc21 [Example 83] | > 99% |  | 
29 | < 20 µg/mL | Cn1nnnc1-n1c(OCc2nc3ccccc3s2)nc2c(Br)cccc21 [Example 104] | > 99% |  | 
30 | < 20 µg/mL | Cn1nnnc1-n1c(OCc2cccc(NCc3ccc(F)cc3)n2)nc2ccccc21 [Example 86] | > 99% |  | 
31 | < 20 µg/mL | Cn1nnnc1-n1c(OCc2cccc(NCc3cccc(OC(F)(F)F)c3)n2)nc2ccccc21 [Example 96] | > 99% |  | 
32 | < 20 µg/mL | CCNc1cccc(COc2nc3ccccc3n2-c2nnnn2C)n1 [Example 36] | > 99% |  | 
33 | < 20 µg/mL | COc1cccc(CNc2cccc(COc3nc4ccccc4n3-c3nnnn3C)n2)c1 [Example 94] | > 99% |  | 
34 | < 20 µg/mL | Cn1nnnc1-n1c(OCc2nc3ccccc3s2)nc2c(Cl)cccc21 [Example 70] | > 99% |  | 
35 | < 20 µg/mL | COc1ccnc(COc2nc3ccccc3n2-c2nnnn2C)c1 [Example 4] | > 99% |  | > 99%
36 | < 20 µg/mL | COc1c(C)cnc(COc2nc3ccccc3n2-c2nnnn2C)c1C [Example 12] | > 99% |  | > 99%
37 | < 20 µg/mL | CCCNc1cccc(COc2nc3ccccc3n2-c2nnnn2C)n1 [Example 42] | > 99% |  | 
38 | ≥ 20 µg/mL | Clc1cncnc1-n1c(OCc2nccs2)nc2ccccc21 [Example 23] | 50 to 99% |  | 
39 | < 20 µg/mL | Cn1nnnc1-n1c(OCc2cccc(NCCCc3ccccc3)n2)nc2ccccc21 [Example 38] | > 99% |  | 
40 | < 20 µg/mL | Cc1cccc(CNc2cccc(COc3nc4c(Cl)cccc4n3-c3nnnn3C)n2)c1 [Example 101] | 50 to 99% |  | 
41 | < 20 µg/mL | COc1ccnc(COc2nc3ccccc3n2-c2nnnn2C)c1OC [Example 13] | 50 to 99% |  | > 99%
42 | < 20 µg/mL | CC(C)CCNc1cccc(COc2nc3c(Cl)cccc3n2-c2nnnn2C)n1 [Example 90] | > 99% |  | 
43 | ≥ 20 µg/mL | Cn1nnnc1-n1c(OCc2cc(N3CCOCC3)ccn2)nc2c(Cl)cccc21 [Example 75] | 50 to 99% |  | 
44 | < 20 µg/mL | COc1ccnc(COc2nc3c(Cl)cccc3n2-c2nnnn2C)c1 [Example 61] | > 99% |  | 
45 | < 20 µg/mL | Cn1nnnc1-n1c(OCc2cccc(NCC3CC3)n2)nc2c(Br)cccc21 [Example 100] | > 99% |  | 
46 | < 20 µg/mL | Cc1cccc(CNc2cccc(COc3nc4ccccc4n3-c3nnnn3C)n2)c1 [Example 95] | > 99% |  | 
47 | ≥ 20 µg/mL | COc1ccc(COc2nc3ccccc3n2-c2nnnn2C)nc1 [Example 56] | < 50% |  | 
